The target of assay [1] is Cyclin-dependent kinase 3 (Homo sapiens) (UniProt Q00526). In words: Selectivity interaction (KinomeScan (DiscoverX)) EUB0000607a CDK3. Particulars: at 10 µM.
For assay [2], the target named is Calcium/calmodulin-dependent protein kinase type II subunit delta (Homo sapiens) (UniProt Q13557). Put plainly: Selectivity interaction (ActivX KiNativ screen (kinase selectivity in THP-1 cell lysates)) EUB0000639a CAMK2D. Type of assay: subcellular. The following applies: lysate, at 1 µM.
Chain of Calcium/calmodulin-dependent protein kinase type II subunit delta (Homo sapiens) (Q13557 whole entry): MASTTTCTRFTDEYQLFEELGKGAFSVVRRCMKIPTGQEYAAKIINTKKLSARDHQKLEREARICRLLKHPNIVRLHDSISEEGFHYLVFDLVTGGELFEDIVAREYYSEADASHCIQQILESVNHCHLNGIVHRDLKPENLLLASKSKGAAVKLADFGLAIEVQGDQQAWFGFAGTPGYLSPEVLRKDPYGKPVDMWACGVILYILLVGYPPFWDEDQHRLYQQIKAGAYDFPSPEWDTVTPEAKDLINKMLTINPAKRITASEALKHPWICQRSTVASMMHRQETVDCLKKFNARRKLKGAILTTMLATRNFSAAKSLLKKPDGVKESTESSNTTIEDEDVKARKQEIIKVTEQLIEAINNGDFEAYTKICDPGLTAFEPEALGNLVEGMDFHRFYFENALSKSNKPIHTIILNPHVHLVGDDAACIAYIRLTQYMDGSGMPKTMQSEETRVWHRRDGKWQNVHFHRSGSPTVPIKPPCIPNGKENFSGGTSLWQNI
The next assay concerns the target Focal adhesion kinase 1 (Homo sapiens, UniProt Q05397). In words: Selectivity interaction (ProQinase) EUB0000171b PTK2.
In assay [3] the target is T1, Interleukin-1 receptor-associated kinase 3 (Homo sapiens) (UniProt Q9Y616).
T1 sequence (whole entry): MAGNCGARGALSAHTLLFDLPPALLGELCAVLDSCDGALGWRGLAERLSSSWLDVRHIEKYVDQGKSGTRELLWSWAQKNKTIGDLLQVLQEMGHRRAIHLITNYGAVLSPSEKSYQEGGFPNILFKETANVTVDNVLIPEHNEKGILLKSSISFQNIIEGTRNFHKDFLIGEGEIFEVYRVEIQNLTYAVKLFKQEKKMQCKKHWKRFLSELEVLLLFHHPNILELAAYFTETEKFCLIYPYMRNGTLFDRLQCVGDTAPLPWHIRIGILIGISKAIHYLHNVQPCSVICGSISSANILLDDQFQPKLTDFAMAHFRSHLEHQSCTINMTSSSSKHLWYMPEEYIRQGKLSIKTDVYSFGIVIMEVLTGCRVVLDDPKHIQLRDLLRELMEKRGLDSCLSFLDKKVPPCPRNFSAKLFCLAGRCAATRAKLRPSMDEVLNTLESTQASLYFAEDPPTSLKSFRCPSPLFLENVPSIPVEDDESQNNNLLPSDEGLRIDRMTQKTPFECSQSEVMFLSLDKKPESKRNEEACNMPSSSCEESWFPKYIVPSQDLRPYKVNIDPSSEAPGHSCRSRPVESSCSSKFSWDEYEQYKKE
In words: Selectivity interaction (Ambit KINOMEscan and KiNATiv profiling in Jurkat cells) EUB0000090b IRAK3. In kind it is cell-based. The following applies: at 1 µM.

Assay [4] addresses Atypical kinase COQ8A, mitochondrial (Homo sapiens, UniProt Q8NI60). In words: Selectivity interaction (KinomeScan (DiscoverX)) EUB0001049a ADCK3. Particulars: at 1 µM.
The target of another assay is Motilin receptor (Homo sapiens, UniProt O43193). Put plainly: Selectivity interaction (Motilin receptor binding assay, human recombinant ) EUB0000877a MLNR.
Chain of Motilin receptor (O43193 whole entry): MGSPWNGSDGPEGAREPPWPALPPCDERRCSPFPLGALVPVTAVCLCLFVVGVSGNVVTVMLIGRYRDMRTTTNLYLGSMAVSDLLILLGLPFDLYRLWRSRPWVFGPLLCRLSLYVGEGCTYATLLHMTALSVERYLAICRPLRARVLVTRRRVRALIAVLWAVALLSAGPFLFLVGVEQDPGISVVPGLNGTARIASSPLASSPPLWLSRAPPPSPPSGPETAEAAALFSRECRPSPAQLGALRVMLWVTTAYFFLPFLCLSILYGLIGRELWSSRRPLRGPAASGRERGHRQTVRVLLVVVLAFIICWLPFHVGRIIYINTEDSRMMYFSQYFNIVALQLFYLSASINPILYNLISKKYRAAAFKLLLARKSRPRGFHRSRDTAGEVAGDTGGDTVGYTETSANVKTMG
Assay [5] addresses T2, Inhibitor of nuclear factor kappa-B kinase subunit epsilon (Homo sapiens) (UniProt Q14164).
T2 sequence (whole entry): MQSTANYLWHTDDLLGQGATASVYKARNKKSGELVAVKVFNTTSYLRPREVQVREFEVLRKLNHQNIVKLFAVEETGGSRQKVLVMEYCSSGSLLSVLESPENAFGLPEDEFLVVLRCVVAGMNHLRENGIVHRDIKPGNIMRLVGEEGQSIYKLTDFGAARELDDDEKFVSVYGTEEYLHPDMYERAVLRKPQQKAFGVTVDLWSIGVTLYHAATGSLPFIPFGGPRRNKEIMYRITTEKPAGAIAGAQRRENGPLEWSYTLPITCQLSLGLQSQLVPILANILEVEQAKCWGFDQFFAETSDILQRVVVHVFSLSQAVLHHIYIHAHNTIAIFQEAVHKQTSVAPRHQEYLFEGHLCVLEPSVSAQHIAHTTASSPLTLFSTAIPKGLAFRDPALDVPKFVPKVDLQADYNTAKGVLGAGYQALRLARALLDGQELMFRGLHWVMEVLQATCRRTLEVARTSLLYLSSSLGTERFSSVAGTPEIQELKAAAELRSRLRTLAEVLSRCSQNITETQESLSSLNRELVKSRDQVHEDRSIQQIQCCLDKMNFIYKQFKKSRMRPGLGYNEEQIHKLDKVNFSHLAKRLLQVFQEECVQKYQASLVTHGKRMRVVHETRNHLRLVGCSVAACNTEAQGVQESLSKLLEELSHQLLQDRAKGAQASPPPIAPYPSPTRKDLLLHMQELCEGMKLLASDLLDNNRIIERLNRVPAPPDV
Put plainly: Selectivity interaction (KinomeScan (DiscoverX)) EUB0000655a IKBKE. Particulars: at 10 µM.

The target in assay [6] is T3, Inhibitor of nuclear factor kappa-B kinase subunit beta (Homo sapiens) (UniProt O14920).
T3 sequence (whole entry): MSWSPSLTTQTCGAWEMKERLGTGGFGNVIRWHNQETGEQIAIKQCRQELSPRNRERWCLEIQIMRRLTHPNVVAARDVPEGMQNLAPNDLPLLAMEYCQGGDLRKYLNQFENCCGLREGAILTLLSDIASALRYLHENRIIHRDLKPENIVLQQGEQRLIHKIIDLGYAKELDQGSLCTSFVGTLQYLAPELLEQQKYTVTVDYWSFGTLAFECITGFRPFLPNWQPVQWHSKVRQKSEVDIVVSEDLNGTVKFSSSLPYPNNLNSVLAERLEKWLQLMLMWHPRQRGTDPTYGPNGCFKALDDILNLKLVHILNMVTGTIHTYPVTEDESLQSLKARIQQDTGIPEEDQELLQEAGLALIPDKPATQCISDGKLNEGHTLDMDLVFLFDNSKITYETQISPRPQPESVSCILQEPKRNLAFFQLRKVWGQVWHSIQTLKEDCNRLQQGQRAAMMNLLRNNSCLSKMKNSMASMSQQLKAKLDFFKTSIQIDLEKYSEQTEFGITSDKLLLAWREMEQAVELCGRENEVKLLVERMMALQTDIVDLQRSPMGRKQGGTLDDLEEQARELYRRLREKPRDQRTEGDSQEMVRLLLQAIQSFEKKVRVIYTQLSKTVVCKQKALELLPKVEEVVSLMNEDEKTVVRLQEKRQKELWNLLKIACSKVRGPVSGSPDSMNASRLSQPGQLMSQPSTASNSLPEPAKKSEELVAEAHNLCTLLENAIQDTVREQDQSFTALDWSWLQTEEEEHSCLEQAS
Put plainly: Selectivity interaction (KinomeScan (DiscoverX)) EUB0000229b IKBKB. The following applies: at 10 µM.

Assay [7] concerns the target Ribosomal protein S6 kinase alpha-1 (Homo sapiens, UniProt Q15418). Put plainly: Selectivity interaction (KinomeScan (DiscoverX)) EUB0000229b RPS6KA1. The following applies: at 10 µM.

Chain of Focal adhesion kinase 1 (Q05397 2-1052 limits assumed): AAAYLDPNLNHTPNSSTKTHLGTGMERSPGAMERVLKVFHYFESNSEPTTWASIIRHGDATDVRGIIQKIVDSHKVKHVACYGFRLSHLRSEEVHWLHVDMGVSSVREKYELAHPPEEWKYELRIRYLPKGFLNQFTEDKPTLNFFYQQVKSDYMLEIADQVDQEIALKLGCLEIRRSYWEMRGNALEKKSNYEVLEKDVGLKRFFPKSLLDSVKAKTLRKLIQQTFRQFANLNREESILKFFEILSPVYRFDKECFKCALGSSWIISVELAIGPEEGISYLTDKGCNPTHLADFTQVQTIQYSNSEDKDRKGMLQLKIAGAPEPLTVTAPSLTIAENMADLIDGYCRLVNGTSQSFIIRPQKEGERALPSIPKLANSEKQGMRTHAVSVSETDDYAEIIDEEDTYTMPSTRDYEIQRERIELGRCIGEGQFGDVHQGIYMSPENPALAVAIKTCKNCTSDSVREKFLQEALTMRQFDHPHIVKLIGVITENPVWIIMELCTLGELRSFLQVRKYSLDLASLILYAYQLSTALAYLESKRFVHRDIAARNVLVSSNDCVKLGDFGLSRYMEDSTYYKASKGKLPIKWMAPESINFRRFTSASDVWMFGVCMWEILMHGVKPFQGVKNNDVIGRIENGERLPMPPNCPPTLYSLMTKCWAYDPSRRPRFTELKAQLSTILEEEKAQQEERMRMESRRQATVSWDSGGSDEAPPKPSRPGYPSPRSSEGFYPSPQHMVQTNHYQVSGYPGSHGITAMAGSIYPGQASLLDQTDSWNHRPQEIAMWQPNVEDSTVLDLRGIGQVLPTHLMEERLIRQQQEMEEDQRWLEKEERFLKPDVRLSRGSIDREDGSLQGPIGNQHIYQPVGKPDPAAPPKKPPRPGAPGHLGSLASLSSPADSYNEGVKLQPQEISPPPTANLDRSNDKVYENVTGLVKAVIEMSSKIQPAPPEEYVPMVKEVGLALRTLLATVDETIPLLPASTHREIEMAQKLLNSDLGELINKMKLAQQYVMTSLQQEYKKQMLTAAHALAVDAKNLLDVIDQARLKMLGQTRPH
Chain of Cyclin-dependent kinase 3 (Homo sapiens) (Q00526 whole entry, looked up): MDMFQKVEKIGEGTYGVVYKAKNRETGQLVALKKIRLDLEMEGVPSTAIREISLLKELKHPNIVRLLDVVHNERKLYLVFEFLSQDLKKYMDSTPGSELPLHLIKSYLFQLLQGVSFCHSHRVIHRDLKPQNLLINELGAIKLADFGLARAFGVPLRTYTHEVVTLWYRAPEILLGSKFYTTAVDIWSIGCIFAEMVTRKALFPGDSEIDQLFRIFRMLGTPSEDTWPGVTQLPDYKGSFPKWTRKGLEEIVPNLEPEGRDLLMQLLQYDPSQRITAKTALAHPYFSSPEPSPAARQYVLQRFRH
Chain of Atypical kinase COQ8A, mitochondrial (Q8NI60 163-647 limits assumed): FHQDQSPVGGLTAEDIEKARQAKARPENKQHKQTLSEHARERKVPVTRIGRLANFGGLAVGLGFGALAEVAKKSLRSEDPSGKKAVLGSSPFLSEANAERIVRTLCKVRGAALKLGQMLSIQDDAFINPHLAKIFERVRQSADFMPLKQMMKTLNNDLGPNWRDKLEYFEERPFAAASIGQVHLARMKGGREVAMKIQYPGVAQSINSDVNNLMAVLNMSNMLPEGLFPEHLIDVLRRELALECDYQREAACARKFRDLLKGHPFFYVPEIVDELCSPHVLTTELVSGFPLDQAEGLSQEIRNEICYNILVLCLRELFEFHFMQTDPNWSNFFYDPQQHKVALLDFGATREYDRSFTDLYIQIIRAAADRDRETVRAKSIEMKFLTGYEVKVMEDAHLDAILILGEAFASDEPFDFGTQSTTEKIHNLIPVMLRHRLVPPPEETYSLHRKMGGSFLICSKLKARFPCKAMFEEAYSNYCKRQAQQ
Chain of Ribosomal protein S6 kinase alpha-1 (Q15418 whole entry): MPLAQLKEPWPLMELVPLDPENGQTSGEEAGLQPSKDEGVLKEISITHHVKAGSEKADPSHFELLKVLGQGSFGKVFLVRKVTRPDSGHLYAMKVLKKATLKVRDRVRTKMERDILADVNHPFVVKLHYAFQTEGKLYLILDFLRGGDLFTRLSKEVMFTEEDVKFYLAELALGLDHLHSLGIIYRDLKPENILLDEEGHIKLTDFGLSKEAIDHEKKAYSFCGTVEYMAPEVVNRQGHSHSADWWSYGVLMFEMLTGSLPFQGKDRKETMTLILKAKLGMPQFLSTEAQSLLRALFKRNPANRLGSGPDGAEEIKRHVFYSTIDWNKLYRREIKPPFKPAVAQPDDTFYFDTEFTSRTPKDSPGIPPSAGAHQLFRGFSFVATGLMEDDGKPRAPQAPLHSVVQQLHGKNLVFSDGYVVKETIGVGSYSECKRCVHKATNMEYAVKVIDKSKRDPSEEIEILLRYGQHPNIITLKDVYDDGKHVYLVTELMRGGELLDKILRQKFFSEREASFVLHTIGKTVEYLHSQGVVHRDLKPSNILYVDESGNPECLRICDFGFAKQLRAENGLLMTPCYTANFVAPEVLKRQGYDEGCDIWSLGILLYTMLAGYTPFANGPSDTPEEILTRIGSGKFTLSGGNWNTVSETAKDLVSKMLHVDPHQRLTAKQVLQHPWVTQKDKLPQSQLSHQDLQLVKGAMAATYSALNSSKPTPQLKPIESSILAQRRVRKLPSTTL

With `CNC(=O)Nc1ccc(-c2nc(N3CC4CCC(C3)O4)c3cnn(C4CCC5(CC4)OCCO5)c3n2)cc1`, in [1], the % of control is 99%.
For `CC[C@@H]1[C@H](F)C(=O)N[C@@H]1COc1nccc2cc(C(N)=O)c(OC)cc12` [ZIMLOVISERTIB], the % of inhibition in assay [2] was determined as 25.1%.
As to `C=CC(=O)Nc1cccc(C(=O)Nc2ccc(Nc3cc(-c4[nH]c(SC)nc4C)ccn3)cc2)c1`, the % of control was determined as 106% at Focal adhesion kinase 1 (at 1 µM) and 92% on Focal adhesion kinase 1 (at 5 µM).
`CN(C)C/C=C/C(=O)Nc1ccc(C(=O)N2CCCC(Nc3ncc(Cl)c(-c4c[nH]c5ccccc45)n3)C2)cc1` (stereo not given): the % of control in [3] came out at 68%.
Consider `COc1cc(Nc2nc(C)cc(-c3cnn4nc(OC)ccc34)n2)cc(C(F)(F)F)c1`, for which the % of control in assay [4] worked out at 91%.
Consider `CCC(=O)N1CC[C@H](Nc2ncnc3c2CN(c2cnc(OC)c(C(F)(F)F)c2)CC3)C1` [LENIOLISIB], for which the IC50 on Motilin receptor was above 30 µM.
As for `CN(C)CCOc1ccc(-c2nc(-c3ccncc3)c(-c3ccc4c(c3)CC/C4=N\O)[nH]2)cc1`, in assay [5], the % of control was 85%.
Turning to `COc1cc(N(C)c2ccnc3ccc(C(F)(F)F)cc23)cc(OC)c1OC`, the % binding in assay [6] was determined as 94%; in assay [7], 93%.

One may read the IC50 as the midpoint of a concentration-inhibition curve.

For the origin of these results see ChEMBL document CHEMBL5465560, “Selectivity Literature for EUbOPEN Chemogenomic Library” (2024).
